Counter-ions that a name gives are not always drawn.
SMILES	melting point
Cl.N[C@H](C(=O)N1CC(F)(F)C1)C1CCCCC1	220 °C (dec.)
CCC(C)[C@H](N)C(=O)N1CC(F)(F)C1.Cl (some centres unmarked)	195 °C (dec.)
C[C@H](N)C(=O)N1CC(F)(F)C(F)(F)C1.Cl	> 250 °C
CC[C@H](C)[C@H](N)C(=O)N1CC(F)C1 (as salt: hydrochloride) [Example 2, (2S,3S)-2-Amino-1-(3-fluoro-azetidin-1-yl)-3-methyl-pentan-1-one]	208 to 210 °C
N[C@H](C(=O)N1CC(F)(F)C(F)(F)C1)C1CCCCC1 (as salt: hydrochloride) [Example 3, (S)-2-Amino-2-cyclohexyl-1-(3,3,4,4-tetrafluoro-pyrrolidin-1-yl)-ethanone]	278 °C
CC[C@@H](C)[C@H](N)C(=O)N1CC(F)(F)C(F)(F)C1 (as salt: hydrochloride) [Example 4, (2S,3R)-2-Amino-3-methyl-1-(3,3,4,4-tetrafluoro-pyrrolidin-1-yl)-pentan-1-one]	> 250 °C
N[C@H](C(=O)N1CC(F)C1)C1CCCCC1 (as salt: hydrochloride) [Example 5, (S)-2-Amino-2-cyclohexyl-1-(3-fluoro-azetidin-1-yl)-ethanone]	238 to 240 °C
CC(C)[C@H](N)C(=O)N1CC(F)(F)C(F)(F)C1 (as salt: hydrochloride) [Example 6, (S)-2-Amino-3-methyl-1-(3,3,4,4-tetrafluoro-pyrrolidin-1-yl)-butan-1-one]	234 to 238 °C

Continued, values first:

melting point	SMILES
190 to 192 °C	CCC(C)[C@H](N)C(=O)N1CCC(F)(F)CC1.Cl (some centres unmarked)
196 to 198 °C	CC[C@@H](C)[C@H](N)C(=O)N1CCC(F)(F)C1 [Example 7, (2S,3R)-2-Amino-1-(3,3-difluoro-pyrrolidin-1-yl)-3-methyl-pentan-1-one]
195 to 198 °C	CC[C@H](C)[C@H](N)C(=O)N1CCC(F)(F)C1 [Example 8, (2S,3S)-2-Amino-1-(3,3-difluoro-pyrrolidin-1-yl)-3-methyl-pentan-1-one]
